In ChEMBL document CHEMBL1148791, “High-throughput screening of drug-brain tissue binding and in silico prediction for assessment of central nervous system drug delivery” (J Med Chem, 2007):

Assays:
[1] = physchem
Description: Acid dissociation constant, pKa of the compound

[2] = physchem; conditions: buffer, pH 7.4
[3] = buffer, pH 7.4
[4] = Fraction unbound ligand in rat adrenal gland after 20 hrs; type: ADME, tissue-based; conditions: adrenal gland tissue
[5] = Fraction unbound ligand in rat brain after 20 hrs; type: ADME, tissue-based; conditions: brain tissue
[6] = Fraction unbound ligand in rat brown fat tissue after 20 hrs; type: ADME, tissue-based, Adipose tissue
[7] = Fraction unbound ligand in rat lung after 20 hrs; type: ADME, tissue-based; conditions: lung tissue

SMILES	pKa [1]	logD [2]	other results
O=C1CC2(CCCC2)CC(=O)N1CCCCN1CCN(c2ncccn2)CC1 [BUSPIRONE]	7.8		
NC(=O)N1c2ccccc2C=Cc2ccccc21 [CARBAMAZEPINE]		1.77	
CCCC(C)(COC(N)=O)COC(=O)NC(C)C (stereo unspecified) [CARISOPRODOL]		2.4	
CN(C)CCCN1c2ccccc2Sc2ccc(Cl)cc21 [CHLORPROMAZINE]		3.7	
CN1CCN(C2=Nc3cc(Cl)ccc3Nc3ccccc32)CC1 [CLOZAPINE]		3.46	
CN(C)CCC=C1c2ccccc2C=Cc2ccccc21 [CYCLOBENZAPRINE]	9.69	2.92	
COCCCC/C(=N\OCCN)c1ccc(C(F)(F)F)cc1 [FLUVOXAMINE]	9.4		
O=C(CCCN1CCC(O)(c2ccc(Cl)cc2)CC1)c1ccc(F)cc1 [HALOPERIDOL]		0.18	
COc1ccc2c3c1O[C@H]1C(=O)CC[C@H]4[C@@H](C2)N(C)CC[C@]314 [HYDROCODONE]	8.43	3.38	
OCCOCCN1CCN(C(c2ccccc2)c2ccc(Cl)cc2)CC1 (stereo unspecified) [HYDROXYZINE]	7.75		Log D [3]: 0.18
COC(=O)[C@H](c1ccccc1)C1CCCCN1 (stereo partly specified) [METHYLPHENIDATE]	9.24	-0.15	
Cc1ncc2n1-c1ccc(Cl)cc1C(c1ccccc1F)=NC2 [MIDAZOLAM]	5.44	2.5	
CNCCC=C1c2ccccc2CCc2ccccc21 [NORTRIPTYLINE]	10.4	2.23	
Fc1ccc([C@@H]2CCNC[C@H]2COc2ccc3c(c2)OCO3)cc1 [PAROXETINE]	10.1	2.27	
CC(C)NCC(O)COc1cccc2ccccc12 (stereo unspecified) [PROPRANOLOL]			fraction unbound at 20 h [4]: 0.01; fraction unbound at 20 h [5]: 0.021; fraction unbound at 20 h [6]: 0.097; fraction unbound at 20 h [7]: 0.053
Cc1nc2n(c(=O)c1CCN1CCC(c3noc4cc(F)ccc34)CC1)CCCC2 [RISPERIDONE]		1.66	
O=c1n(CCCN2CCN(c3cccc(Cl)c3)CC2)nc2ccccn12 [TRAZODONE]	6.73	2.97	
COc1ccc(C(CN(C)C)C2(O)CCCCC2)cc1 (stereo unspecified) [VENLAFAXINE]		0.88	
Cc1ccc(-c2nc3ccc(C)cn3c2CC(=O)N(C)C)cc1 [ZOLPIDEM]	6.02	2.35	
